Experimental data as given in US12435044B2, “Pyridazinone herbicides and pyridazinone intermediates used to prepare a herbicide” (FMC Corporation, priority 2018, dated 2025).

Assays:
Format in all cases: in vivo
[1] = system: sedge, umbrella (small-flower umbrella sedge, Cyperus difformis); assay: Test C flooded paddy test; details: Flood, scale 0 to 100
Source text: (§1) Plant species in the flooded paddy test consisted of rice (transplanted and water seeded, Oryza sativa), sedge, umbrella (small-flower umbrella sedge, Cyperus difformis), ducksalad (Heteranthera limosa), Bulrush, Japanese (Scirpus juncoides) and barnyardgrass (Echinochloa crus-galli) grown to the 2-leaf stage for testing. At time of treatment, test pots were flooded to 3 cm above the soil surface, treated by application of test compounds directly to the paddy water, and then maintained at that water depth for the duration of the test. Treated plants and controls were maintained in a greenhouse for 13 to 15 d, after which time all species were compared to controls and visually evaluated. Plant response ratings, summarized in Table C are based on a scale of 0 to 100 where 0 is no effect and 100 is complete control. A dash (-) response means no test result.

[2] = system: ducksalad (Heteranthera limosa); assay: Test C flooded paddy test; details: Flood, scale 0 to 100
Source text: as §1

[3] = system: barnyardgrass (Echinochloa crus-galli); assay: Test C flooded paddy test; details: Flood, scale 0 to 100
Source text: as §1

[4] = system: rice (transplanted and water seeded, Oryza sativa); assay: Test C flooded paddy test; details: Flood, scale 0 to 100
Source text: as §1

[5] = system: lambsquarters (Chenopodium album); assay: Test C pre-/postemergence greenhouse test; details: scale 0 to 100
Outline: (§2)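 Test chemicals in a non-phytotoxic solvent mixture with surfactant; preemergence on seeds sown in silt loam, postemergence on plants 2–18 cm tall (1- to 4-leaf stage) in peat/vermiculite medium. Greenhouse for 13–21 d, then visual rating against untreated controls, 0 (no effect) to 100 (complete control).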

[6] = system: blackgrass (Alopecurus myosuroides); assay: Test C pre-/postemergence greenhouse test; details: scale 0 to 100
Outline: as §2

[7] = system: nutsedge, yellow (Cyperus esculentus); assay: Test C pre-/postemergence greenhouse test; details: scale 0 to 100
Outline: as §2

oat, wild (Avena fatua) = assay: Test C pre-/postemergence greenhouse test; details: scale 0 to 100
Outline: as §2

[8] = system: poinsettia, wild (Euphorbia heterophylla); assay: Test C pre-/postemergence greenhouse test; details: scale 0 to 100
Outline: as §2

[9] = system: pigweed, palmer (Amaranthus palmeri); assay: Test C pre-/postemergence greenhouse test; details: scale 0 to 100
Outline: as §2

[10] = system: windgrass (Apera spica-venti); assay: Test C pre-/postemergence greenhouse test; details: scale 0 to 100
Outline: as §2

## Cc1ccc2ccc(C)c(-c3c(O)c(Cl)nn(C)c3=O)c2c1 [Cpd. No. 20, 6-chloro-4-(2,7-dimethyl-1-naphthalenyl)-5-hydroxy-2-methyl-3(2H)-pyridazinone]
[1]; 31 g ai/ha
  Plant response rating, Sedge, Umbrella: 0
[1]; 62 g ai/ha
  Plant response rating, Sedge, Umbrella: 0
[1]; 125 g ai/ha
  Plant response rating, Sedge, Umbrella: 50
[1]; 250 g ai/ha
  Plant response rating, Sedge, Umbrella: 70
[2]; 31 g ai/ha
  Plant response rating, Ducksalad: 0
[2]; 62 g ai/ha
  Plant response rating, Ducksalad: 30
[2]; 125 g ai/ha
  Plant response rating, Ducksalad: 70
[2]; 250 g ai/ha
  Plant response rating, Ducksalad: 85
[3]; 31 g ai/ha
  Plant response rating, Barnyardgrass: 0
[3]; 62 g ai/ha
  Plant response rating, Barnyardgrass: 0
[3]; 125 g ai/ha
  Plant response rating, Barnyardgrass: 0
[3]; 250 g ai/ha
  Plant response rating, Barnyardgrass: 20
[4]; 31 g ai/ha
  Plant response rating, Rice, Transplanted: 0
  Plant response rating, Rice, Water Seeded: 0
[4]; 62 g ai/ha
  Plant response rating, Rice, Transplanted: 0
  Plant response rating, Rice, Water Seeded: 0
[4]; 125 g ai/ha
  Plant response rating, Rice, Transplanted: 0
  Plant response rating, Rice, Water Seeded: 0
[4]; 250 g ai/ha
  Plant response rating, Rice, Transplanted: 0
  Plant response rating, Rice, Water Seeded: 0
[5]; Postemergence, 16 g ai/ha
  Plant response rating, Lambsquarters: 75
[5]; Postemergence, 31 g ai/ha
  Plant response rating, Lambsquarters: 90
[5]; Postemergence, 62 g ai/ha
  Plant response rating, Lambsquarters: 95
[5]; Postemergence, 125 g ai/ha
  Plant response rating, Lambsquarters: 95
[5]; Preemergence, 31 g ai/ha
  Plant response rating, Lambsquarters: 75
[5]; Preemergence, 61 g ai/ha
  Plant response rating, Lambsquarters: 80
[5]; Preemergence, 62 g ai/ha
  Plant response rating, Lambsquarters: 100
[5]; Preemergence, 125 g ai/ha
  Plant response rating, Lambsquarters: 100
[6]; Postemergence, 16 g ai/ha
  Plant response rating, Blackgrass: 20
[6]; Postemergence, 31 g ai/ha
  Plant response rating, Blackgrass: 30
[6]; Postemergence, 62 g ai/ha
  Plant response rating, Blackgrass: 40
[6]; Postemergence, 125 g ai/ha
  Plant response rating, Blackgrass: 45
[6]; Preemergence, 31 g ai/ha
  Plant response rating, Blackgrass: 85
[6]; Preemergence, 61 g ai/ha
  Plant response rating, Blackgrass: 20
[6]; Preemergence, 62 g ai/ha
  Plant response rating, Blackgrass: 85
[6]; Preemergence, 125 g ai/ha
  Plant response rating, Blackgrass: 90
[7]; Postemergence, 16 g ai/ha
  Plant response rating, Nutsedge, Yellow: 90
[7]; Postemergence, 31 g ai/ha
  Plant response rating, Nutsedge, Yellow: 90
[7]; Postemergence, 62 g ai/ha
  Plant response rating, Nutsedge, Yellow: 95
[7]; Postemergence, 125 g ai/ha
  Plant response rating, Nutsedge, Yellow: 98
[7]; Preemergence, 31 g ai/ha
  Plant response rating, Nutsedge, Yellow: 95
[7]; Preemergence, 61 g ai/ha
  Plant response rating, Nutsedge, Yellow: 40
[7]; Preemergence, 62 g ai/ha
  Plant response rating, Nutsedge, Yellow: 95
[7]; Preemergence, 125 g ai/ha
  Plant response rating, Nutsedge, Yellow: 98
oat, wild (Avena fatua); Postemergence, 16 g ai/ha
  Plant response rating, Oat, Wild: 35
oat, wild (Avena fatua); Postemergence, 31 g ai/ha
  Plant response rating, Oat, Wild: 55
oat, wild (Avena fatua); Postemergence, 62 g ai/ha
  Plant response rating, Oat, Wild: 70
oat, wild (Avena fatua); Postemergence, 125 g ai/ha
  Plant response rating, Oat, Wild: 90

## Cc1cc(Cl)c2ccccc2c1-c1c(O)c(Cl)nn(C)c1=O [Cpd. No. 65]
[1]; 31 g ai/ha
  Plant response rating, Sedge, Umbrella: 95
[1]; 62 g ai/ha
  Plant response rating, Sedge, Umbrella: 100
[1]; 125 g ai/ha
  Plant response rating, Sedge, Umbrella: 100
[1]; 250 g ai/ha
  Plant response rating, Sedge, Umbrella: 100
[2]; 31 g ai/ha
  Plant response rating, Ducksalad: 95
[2]; 62 g ai/ha
  Plant response rating, Ducksalad: 100
[2]; 125 g ai/ha
  Plant response rating, Ducksalad: 100
[2]; 250 g ai/ha
  Plant response rating, Ducksalad: 100
[3]; 31 g ai/ha
  Plant response rating, Barnyardgrass: 0
[3]; 62 g ai/ha
  Plant response rating, Barnyardgrass: 10
[3]; 125 g ai/ha
  Plant response rating, Barnyardgrass: 30
[3]; 250 g ai/ha
  Plant response rating, Barnyardgrass: 100
[4]; 31 g ai/ha
  Plant response rating, Rice, Transplanted: 0
[4]; 62 g ai/ha
  Plant response rating, Rice, Transplanted: 0
[4]; 125 g ai/ha
  Plant response rating, Rice, Transplanted: 20
  Plant response rating, Rice, Water Seeded: 10
[4]; 250 g ai/ha
  Plant response rating, Rice, Transplanted: 70
[8]; Postemergence, 16 g ai/ha
  Plant response rating, Poinsettia, Wild: 70
[8]; Postemergence, 31 g ai/ha
  Plant response rating, Poinsettia, Wild: 95
[8]; Postemergence, 62 g ai/ha
  Plant response rating, Poinsettia, Wild: 80
[8]; Postemergence, 125 g ai/ha
  Plant response rating, Poinsettia, Wild: 100
[8]; Preemergence, 31 g ai/ha
  Plant response rating, Poinsettia, Wild: 35
[8]; Preemergence, 61 g ai/ha
  Plant response rating, Poinsettia, Wild: 25
[8]; Preemergence, 62 g ai/ha
  Plant response rating, Poinsettia, Wild: 70
[8]; Preemergence, 125 g ai/ha
  Plant response rating, Poinsettia, Wild: 100
[5]; Postemergence, 16 g ai/ha
  Plant response rating, Lambsquarters: 90
[5]; Postemergence, 31 g ai/ha
  Plant response rating, Lambsquarters: 98
[5]; Postemergence, 62 g ai/ha
  Plant response rating, Lambsquarters: 100
[5]; Postemergence, 125 g ai/ha
  Plant response rating, Lambsquarters: 100
[5]; Preemergence, 31 g ai/ha
  Plant response rating, Lambsquarters: 80
[5]; Preemergence, 61 g ai/ha
  Plant response rating, Lambsquarters: 20
[5]; Preemergence, 62 g ai/ha
  Plant response rating, Lambsquarters: 90
[5]; Preemergence, 125 g ai/ha
  Plant response rating, Lambsquarters: 100
[9]; Postemergence, 16 g ai/ha
  Plant response rating, Pigweed, Palmer: 35
[9]; Postemergence, 31 g ai/ha
  Plant response rating, Pigweed, Palmer: 55
[9]; Postemergence, 62 g ai/ha
  Plant response rating, Pigweed, Palmer: 60
[9]; Postemergence, 125 g ai/ha
  Plant response rating, Pigweed, Palmer: 95
[9]; Preemergence, 31 g ai/ha
  Plant response rating, Pigweed, Palmer: 70
[9]; Preemergence, 61 g ai/ha
  Plant response rating, Pigweed, Palmer: 50
[9]; Preemergence, 62 g ai/ha
  Plant response rating, Pigweed, Palmer: 100
[9]; Preemergence, 125 g ai/ha
  Plant response rating, Pigweed, Palmer: 100
[6]; Postemergence, 16 g ai/ha
  Plant response rating, Blackgrass: 55
[6]; Postemergence, 31 g ai/ha
  Plant response rating, Blackgrass: 90
[6]; Postemergence, 62 g ai/ha
  Plant response rating, Blackgrass: 90
[6]; Postemergence, 125 g ai/ha
  Plant response rating, Blackgrass: 95
[6]; Preemergence, 31 g ai/ha
  Plant response rating, Blackgrass: 5
[6]; Preemergence, 61 g ai/ha
  Plant response rating, Blackgrass: 10
[6]; Preemergence, 62 g ai/ha
  Plant response rating, Blackgrass: 55
[6]; Preemergence, 125 g ai/ha
  Plant response rating, Blackgrass: 85
[10]; Postemergence, 16 g ai/ha
  Plant response rating, Windgrass: 90
[10]; Postemergence, 31 g ai/ha
  Plant response rating, Windgrass: 90
[10]; Postemergence, 62 g ai/ha
  Plant response rating, Windgrass: 95
[10]; Postemergence, 125 g ai/ha
  Plant response rating, Windgrass: 95
[10]; Preemergence, 31 g ai/ha
  Plant response rating, Windgrass: 80
[10]; Preemergence, 61 g ai/ha
  Plant response rating, Windgrass: 50
[10]; Preemergence, 62 g ai/ha
  Plant response rating, Windgrass: 95
[10]; Preemergence, 125 g ai/ha
  Plant response rating, Windgrass: 100
[7]; Postemergence, 16 g ai/ha
  Plant response rating, Nutsedge, Yellow: 50
[7]; Postemergence, 31 g ai/ha
  Plant response rating, Nutsedge, Yellow: 75
[7]; Postemergence, 62 g ai/ha
  Plant response rating, Nutsedge, Yellow: 65
[7]; Postemergence, 125 g ai/ha
  Plant response rating, Nutsedge, Yellow: 95
[7]; Preemergence, 31 g ai/ha
  Plant response rating, Nutsedge, Yellow: 75
[7]; Preemergence, 61 g ai/ha
  Plant response rating, Nutsedge, Yellow: 10
[7]; Preemergence, 62 g ai/ha
  Plant response rating, Nutsedge, Yellow: 75
[7]; Preemergence, 125 g ai/ha
  Plant response rating, Nutsedge, Yellow: 95
oat, wild (Avena fatua); Postemergence, 16 g ai/ha
  Plant response rating, Oat, Wild: 98
oat, wild (Avena fatua); Postemergence, 31 g ai/ha
  Plant response rating, Oat, Wild: 100
oat, wild (Avena fatua); Postemergence, 62 g ai/ha
  Plant response rating, Oat, Wild: 100
oat, wild (Avena fatua); Postemergence, 125 g ai/ha
  Plant response rating, Oat, Wild: 100
oat, wild (Avena fatua); Preemergence, 31 g ai/ha
  Plant response rating, Oat, Wild: 35
oat, wild (Avena fatua); Preemergence, 61 g ai/ha
  Plant response rating, Oat, Wild: 30
oat, wild (Avena fatua); Preemergence, 62 g ai/ha
  Plant response rating, Oat, Wild: 40
oat, wild (Avena fatua); Preemergence, 125 g ai/ha
  Plant response rating, Oat, Wild: 60
